Data taken from ChEMBL document CHEMBL1143859, “Identification and synthesis of a unique thiocarbazate cathepsin L inhibitor” (Bioorg Med Chem Lett, 2008).

What follows are compounds tested against Procathepsin L (Homo sapiens, UniProt P07711) (assay: Inhibition of cathepsin L).
Chain of Procathepsin L (P07711 whole entry): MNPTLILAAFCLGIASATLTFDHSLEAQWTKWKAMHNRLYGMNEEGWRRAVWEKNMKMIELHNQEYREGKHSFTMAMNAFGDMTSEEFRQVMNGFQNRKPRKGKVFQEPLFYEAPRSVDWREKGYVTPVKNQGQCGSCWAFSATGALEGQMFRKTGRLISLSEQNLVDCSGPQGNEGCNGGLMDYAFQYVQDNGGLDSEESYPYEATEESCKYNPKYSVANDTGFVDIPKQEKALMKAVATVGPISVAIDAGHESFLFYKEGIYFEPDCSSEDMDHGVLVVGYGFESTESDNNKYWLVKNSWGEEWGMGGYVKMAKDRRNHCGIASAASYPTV

| SMILES | IC50 |
| --- | --- |
| CCc1ccccc1NC(=O)CSC(=O)NNC(=O)[C@@H](N)Cc1c[nH]c2ccccc12 | 133 nM |
| CCc1ccccc1NC(=O)CSc1nnc(C(N)Cc2c[nH]c3ccccc23)o1 (single isomer, unassigned) | 130 nM |
| CCN(CC)C(=O)CSc1nnc([C@@H](N)Cc2c[nH]c3ccccc23)o1 | 510 nM |
| CN(C)C(=O)CSc1nnc([C@@H](N)Cc2c[nH]c3ccccc23)o1 | 170 nM |
| Cc1ccc(NC(=O)CSc2nnc(C(N)Cc3c[nH]c4ccccc34)o2)c(C)c1 (single isomer, unassigned) | 160 nM |
| Cc1cccc(NC(=O)CSc2nnc(C(N)Cc3c[nH]c4ccccc34)o2)c1C (single isomer, unassigned) | 300 nM |
